Data set [1] has as its target T1, Aromatase (Homo sapiens, UniProt P11511).
T1 sequence (P11511 whole entry): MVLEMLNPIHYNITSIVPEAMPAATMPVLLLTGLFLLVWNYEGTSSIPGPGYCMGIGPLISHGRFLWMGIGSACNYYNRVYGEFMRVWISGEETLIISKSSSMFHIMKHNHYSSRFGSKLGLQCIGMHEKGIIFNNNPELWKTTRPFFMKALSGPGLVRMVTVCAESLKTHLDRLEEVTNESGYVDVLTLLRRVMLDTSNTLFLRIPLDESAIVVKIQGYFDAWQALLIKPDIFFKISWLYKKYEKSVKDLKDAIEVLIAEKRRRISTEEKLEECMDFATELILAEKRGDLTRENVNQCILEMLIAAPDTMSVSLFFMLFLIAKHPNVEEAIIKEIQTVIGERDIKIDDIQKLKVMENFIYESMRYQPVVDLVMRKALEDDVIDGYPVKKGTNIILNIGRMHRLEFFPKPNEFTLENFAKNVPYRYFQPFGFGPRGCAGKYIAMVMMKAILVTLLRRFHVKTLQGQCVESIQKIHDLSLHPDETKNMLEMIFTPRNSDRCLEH

For data set [2], the target named is T1, Aromatase. As to the kind of experiment: Competitive inhibition of human aromatase extracted from placental microsomes by Dixon plot analysis in presence of [1beta-3H]androstenedione.
Data set [3] concerns the target T1, Aromatase. As to the kind of experiment: Inhibition of aromatase (unknown origin). Also on record: inhibition (INH): concentration or dose not given beside the values. As to conditions: for inhibition (INH): human.
In data set [4] the target is T1, Aromatase. This is another data set of the same source.

Here are results for 59 compounds from ChEMBL document CHEMBL3751755, “Developing steroidal aromatase inhibitors-an effective armament to win the battle against breast cancer” (Eur J Med Chem, 2015).

Regarding `C[C@]12CCCC=C1[C@@H]1[C@H]([C@@H]3[C@@H]2CC[C@]2(C)C(=O)CC[C@@H]32)C1(F)F`, the Ki at Aromatase [1] turned out to be 5 nM. With `C[C@]12C=CC(=O)C=C1C[C@@H](CCc1ccc([N+](=O)[O-])cc1)[C@@H]1[C@@H]2CC[C@]2(C)C(=O)CC[C@@H]12`, the Ki on Aromatase [1] was found to be 7 nM. `CC[C@]12CCC(=O)C=C1C=C[C@@H]1[C@@H]2CC[C@]2(C)C(=O)CC[C@@H]12`: the Ki on Aromatase [2] (read-out: Ki) was determined as 8.2 nM.

At Aromatase [1], `C[C@]12CC[C@H]3[C@@H](CCC4=CCCC[C@@]43CO)[C@@H]1CC[C@@H]2O` returned a Ki of 170 nM. The same measure, in the same setting: under `C[C@]12CCC(=O)C=C1C=C(c1ccccc1)[C@@H]1[C@@H]2CC[C@]2(C)C(=O)CC[C@@H]12` stands 1420 nM; under `C[C@]12C=CC(=O)C=C1C[C@@H](CCc1ccc(N)cc1)[C@@H]1[C@@H]2CC[C@]2(C)C(=O)CC[C@@H]12`, 7 nM. `C[C@]12CC[C@H]3[C@@H](CCC4=CC(=O)CC[C@@]43[C@H]3CN3)[C@@H]1CC[C@@H]2O` yielded a Ki at Aromatase [3] of 3.4 nM. For `CC[C@@H]1C[C@@H]2[C@H](CC[C@]3(C)C(=O)CC[C@@H]23)[C@@]2(C)C=CC(=O)C=C12`, the Ki on Aromatase [2] (read-out: Ki(app)) was 4.7 nM. Consider `C[C@]12C=CC(=O)C=C1C[C@@H](Cc1ccccc1)[C@@H]1[C@@H]2CC[C@]2(C)C(=O)CC[C@@H]12`, for which the Ki on Aromatase [1] stood at 7 nM.

As for `C[C@]12CC[C@H]3[C@@H]([C@H](Cc4ccccc4)CC4=CC(=O)CC[C@@]43C)[C@@H]1CC[C@@H]2O`, the Ki on Aromatase [1] turned out to be 36 nM. Compound `C[C@]12C=CC(=O)C=C1C[C@@H](CCCc1ccccc1)[C@@H]1[C@@H]2CC[C@]2(C)C(=O)CC[C@@H]12` came in with a Ki on Aromatase [1] of 7 nM. Consider `C[C@]12CC[C@H]3[C@@H](CCC4=CC(=O)CC[C@@]43[C@@H]3CN3)[C@@H]1CCC2=O`, for which, at Aromatase [3], the Ki was 3.4 nM.

In the case of `CC(=O)SC1=C2CC[C@@H]3[C@H](CC[C@]4(C)C(=O)CC[C@@H]34)[C@@]2(C)CCC1=O`, at Aromatase [1], the Ki came to 36 nM. As for `C[C@]12CC[C@H]3[C@@H](CC[C@H]4C[C@@]5(O)C[C@H]6[C@H](O5)[C@]436)[C@@H]1CCC2=O`, the “inhibition (INH)” value against Aromatase [3] was 40%. `C[C@]12CCC(=O)C(O)=C1C(=O)C[C@@H]1[C@@H]2CC[C@]2(C)C(=O)CC[C@@H]12` had a Ki on Aromatase [3] of 42 nM. On Aromatase [1], `C[C@]12CC[C@H]3[C@@H]([C@H]4[C@@H](C5=CCCC[C@@]53C)C4(F)F)[C@@H]1CC[C@@H]2O` returned a Ki of 5 nM. With `C[C@]12CC[C@H]3[C@@H](C(=O)C=C4CCCC[C@@]43CO)[C@@H]1CCC2=O`, at Aromatase [2] (read-out: Ki), the Ki turned out to be 11100 nM. With `C[C@]12CCC(=O)C(OCc3ccccc3)=C1CC[C@@H]1[C@@H]2CC[C@]2(C)C(=O)CC[C@@H]12`, the Ki on Aromatase [1] amounted to 38 nM. At Aromatase [1], `C[C@]12CCC(=O)C=C1C[C@@H](Cc1ccccc1)[C@@H]1[C@@H]2CC[C@]2(C)C(=O)CC[C@@H]12` had a Ki of 18.9 nM. Still for that read-out and setting: to `C[C@]12CCCC=C1CC[C@@H]1[C@@H]2CC[C@]2(C)C(=O)[C@@H](Br)C[C@@H]12` belongs 455 nM; to `C[C@]12CC[C@H]3[C@@H](CCC4=CCCC[C@@]43C(F)F)[C@@H]1CCC2=O`, 170 nM.

In the case of `C[C@]12CC[C@H]3[C@@H](CC[C@H]4CC(=O)C[C@H]5[C@@H](O)[C@]435)[C@@H]1CCC2=O`, the “inhibition (INH)” value against Aromatase [3] is 40%. For `COC(=O)C1=C(C)NC(C)=C(C(=O)OC)C1C[C@H]1C[C@@H]2[C@H](CC[C@]3(C)C(=O)CC[C@@H]23)[C@@]2(C)C=CC(=O)C=C12`, half-maximal inhibition against Aromatase [3] (IC50) required 10000 nM. For `CCSC1=C2CC[C@@H]3[C@H](CC[C@]4(C)C(=O)CC[C@@H]34)[C@@]2(C)CCC1=O`, the Ki on Aromatase [1] turned out to be 36 nM.

As for `CC[C@]12C=CC(=O)C=C1C=C[C@H]1[C@@H]3CCC(=O)[C@@]3(C)CC[C@@H]12`, the Ki on Aromatase [2] (read-out: Ki) was 8.2 nM. Consider `CC(=O)[C@@]1(C)CC[C@H]2[C@@H](CCC3=C(O)C(=O)CC[C@@]32C)C1CC#N` (some centres undefined), for which the “inhibition (INH)” value against Aromatase [3] was 46.5%. For the compound `CC[C@]12C=CC(=O)C=C1CC[C@H]1[C@@H]3CCC(=O)[C@@]3(C)CC[C@@H]12`, the Ki on Aromatase [2] (read-out: Ki) was found to be 8.2 nM.

Compound `C[C@]12CCC(=O)C=C1C=C(CCc1ccccc1)[C@@H]1[C@@H]2CC[C@]2(C)C(=O)CC[C@@H]12` gave a Ki at Aromatase [1] of 60.9 nM. Consider `C[C@]12CCC(=O)C=C1C[C@H](Cc1ccccc1)[C@@H]1[C@@H]2CC[C@]2(C)C(=O)CC[C@@H]12`, for which the Ki on Aromatase [1] is 36 nM. In the case of `CC(=O)O[C@@H]1[C@@H]2CC(=O)C[C@@H]3CC[C@@H]4[C@H](CC[C@]5(C)C(=O)CC[C@@H]45)[C@@]312`, at Aromatase [3], the “inhibition (INH)” value amounted to 40%. As for `CC1(C)C[C@@]2(C)C(=C(O)C1=O)C(=O)C[C@@H]1[C@@H]2CC[C@]2(C)C(=O)CC[C@@H]12`, on Aromatase [3], the Ki came to 40 nM. Same read-out and setting: to `C[C@]12CC[C@H]3[C@@H](CCC4=CC(=O)CC[C@@]43[C@@H]3CN3)[C@@H]1CC[C@@H]2O` belongs 3.4 nM. With `C[C@]12C=CC(=O)C=C1C[C@@H](CCCc1ccc([N+](=O)[O-])cc1)[C@@H]1[C@@H]2CC[C@]2(C)C(=O)CC[C@@H]12`, at Aromatase [1], the Ki is 7 nM. Compound `CCCCCCC1=C[C@@H]2[C@H](CC[C@]3(C)C(=O)CC[C@@H]23)[C@@]2(C)CCC(=O)C=C12` yielded a Ki on Aromatase [4] of 17 nM. On the same count and under the same terms, to `CCCCCC[C@@H]1C[C@@H]2[C@H](CC[C@]3(C)C(=O)CC[C@@H]23)[C@@]2(C)CCC(=O)C=C12` belongs 2.8 nM.

Consider `C[C@]12CCC(=O)C=C1[C@@H]1[C@H]([C@@H]3[C@@H]2CC[C@]2(C)C(=O)CC[C@@H]32)C1(F)F`, for which the Ki on Aromatase [1] amounted to 5 nM. For `C[C@]12CC[C@@H]3c4ccc(O)cc4[C@H](CCCc4ccccc4)C[C@H]3[C@@H]1CCC2=O`, the Ki at Aromatase [4] was 100 nM. For `C[C@]12CCC(=O)C=C1C[C@@H](CCc1ccccc1)[C@@H]1[C@@H]2CC[C@]2(C)C(=O)CC[C@@H]12`, at Aromatase [1], the Ki is 13.1 nM.

Regarding `C[C@]12CCC(=O)C=C1C=C(Cc1ccccc1)[C@@H]1[C@@H]2CC[C@]2(C)C(=O)CC[C@@H]12`, the Ki at Aromatase [1] worked out at 60.9 nM. `C[C@]12CC[C@H]3[C@@H](CC[C@]45O[C@H]4C(=O)CC[C@]35CO)[C@@H]1CCC2=O` came in with a Ki on Aromatase [4] of 5000 nM. On the same count and under the same terms, under `C[C@]12CC[C@@H]3c4ccc(O)cc4[C@@H](CCCc4ccccc4)C[C@H]3[C@@H]1CCC2=O` stands 100 nM. The compound `C[C@]12C=CC(=O)C=C1C[C@@H](CCc1ccccc1)[C@@H]1[C@@H]2CC[C@]2(C)C(=O)CC[C@@H]12` returned a Ki at Aromatase [1] of 7 nM. `CC(=O)O[C@H]1[C@@H]2[C@H](CC[C@]3(C)C(=O)CC[C@@H]23)[C@@]2(C)CCC(=O)C=C2[C@@H]1N=[N+]=[N-]`: the IC50 on Aromatase [3] was 400 nM. On Aromatase [4], `C[C@]12CC[C@H]3[C@@H](C(=O)[C@H]4O[C@]45C(=O)CCC[C@]35C)[C@@H]1CCC2=O` displayed a Ki of 5000 nM. The compound `C[C@]12CC[C@@H]3c4ccc(O)c(NC(=O)c5ccncc5)c4CC[C@H]3[C@@H]1CCC2=O` gave a Ki on Aromatase [4] of 1530 nM.

`CCC1=C[C@@H]2[C@H](CC[C@]3(C)C(=O)CC[C@@H]23)[C@@]2(C)CCC(=O)C=C12` yielded a Ki on Aromatase [4] of 17 nM. `C#C[C@@H](OC(C)=O)[C@@]12CCC(=O)C=C1C(=O)C[C@@H]1[C@@H]2CC[C@]2(C)C(=O)CC[C@@H]12` gave a Ki on Aromatase [1] of 75000 nM. In turn, `CCC1=C[C@@H]2[C@H](CC[C@]3(C)C(=O)CC[C@@H]23)[C@@]2(C)C=CC(=O)C=C12` showed a Ki on Aromatase [4] of 2.5 nM.

The compound `C[C@]12CC[C@H]3[C@@H](CCC4=CC(=O)CC[C@@]43[C@H]3CN3)[C@@H]1CCC2=O` had a Ki on Aromatase [3] of 3.4 nM. For the compound `C[C@]12CCCC=C1CC[C@@H]1[C@@H]2CC[C@]2(C)C(=O)[C@H](Br)C[C@@H]12`, on Aromatase [1], the Ki came to 228 nM.

At Aromatase [3], `CC1(C)C[C@@]2(C)C(=CC1=O)C(=O)C[C@@H]1[C@@H]2CC[C@]2(C)C(=O)CC[C@@H]12` displayed a Ki of 25 nM. In turn, `C[C@]12CC[C@H]3[C@@H](CC[C@]45O[C@H]4C(=O)CC[C@]35C)[C@@H]1CCC2=O` came in with a Ki at Aromatase [4] of 5000 nM. Compound `CCCSC1=C2CC[C@@H]3[C@H](CC[C@]4(C)C(=O)CC[C@@H]34)[C@@]2(C)CCC1=O` came in with a Ki on Aromatase [1] of 36 nM. On Aromatase [1], `C#C[C@H](OC(C)=O)[C@]12CCC(=O)C=C1C(=O)C[C@@H]1[C@@H]2CC[C@]2(C)C(=O)CC[C@@H]12` showed a Ki of 67000 nM. Same read-out and setting: under `C[C@]12CCC(=O)C=C1C[C@H](CCc1ccccc1)[C@@H]1[C@@H]2CC[C@]2(C)C(=O)CC[C@@H]12` stands 36 nM; under `CSC1=C2CC[C@@H]3[C@H](CC[C@]4(C)C(=O)CC[C@@H]34)[C@@]2(C)CCC1=O`, 36 nM. At Aromatase [4], `CCCCCCC1=C[C@@H]2[C@H](CC[C@]3(C)C(=O)CC[C@@H]23)[C@@]2(C)C=CC(=O)C=C12` registered a Ki of 2.5 nM. For `C[C@]12CCC(=O)C=C1[C@@H](c1ccc(O)cc1)C[C@@H]1[C@@H]2CC[C@]2(C)C(=O)CC[C@@H]12`, the Ki on Aromatase [4] came to 27 nM. Regarding `CCCCCC1=C[C@@H]2[C@H](CC[C@]3(C)C(=O)CC[C@@H]23)[C@@]2(C)CCC(=O)C=C12`, the Ki at Aromatase [4] was 17 nM.
